Experimental findings from paper PMC5540946, “Stress-Driven Discovery of Novel Cryptic Antibiotics from a Marine Fungus Penicillium sp. BB1122” (Frontiers in Microbiology, 2017) are described below.

What all share (format): cell-based
Assay [1] relates to methicillin resistant Staphylococcus aureus (MRSA). As to the kind of experiment: Broth dilution antibacterial assay (MIC, MBC by subculture) against MRSA. Conditions: for MIC: 18 h. The protocol: (§1) The conventional broth dilution assay was used to evaluate the antibacterial activities. Three clinical pathogens namely MRSA, P. aeruginosa [CMCC(B)10104], and K. pneumoniae [CMCC(B)46117] were cultured and left overnight to grow. Each pathogenic culture was then diluted in 0.9% saline to an inoculum density of 5 × 10^5 cfu by comparison with a McFarland standard. Tetracycline was dissolved in Mueller–Hinton broth with a starting concentration of 512 μg/mL and was used as positive control whereas methanol was used as negative control. A total of 125 μL of MHB was distributed into the 96-well plates. A total of 125 μL of the different samples were dispensed into well 1 and serially diluted across the plate. Ultimately, addition of 125 μL of the bacterial inoculum was performed and the plates were incubated at 37°C for 18 h. The bacteriostatic abilities of the compounds were noted as MICs which were done in triplicate. Five milligrams per milliliter of methanolic solution of 3-[4,5-dimethylthiazol-2-yl]-2,5-diphenyltetrazolium bromide (MTT; Lancaster) was used to detect bacterial growth by a change in color from yellow to blue ([Appendino et al., 2008]).
(§2) Ten microliters of broth with no visible growth were taken from the wells and sub-cultured on nutrient agar plates. The negative control consisted of nutrient agar and the inoculum which was then compared with the number of colonies on the agar. The bactericidal abilities of the compounds were noted as MBCs which was equal to the lowest concentration of the samples which killed 99.9% of the original inoculum ([Clinical and Laboratory Standards Institute, 2014]).

The test system of assay [2] is K. pneumoniae [CMCC(B)46117]. As to the kind of experiment: Broth dilution antibacterial assay (MIC, MBC by subculture) against K. pneumoniae. Particulars: Klebsiella pneumoniae. How it is done: as §1, §2
Assay [3] has as its system Human liver cell line LO2. The assay is described as follows: Cytotoxicity assay (MTT). Conditions: normal liver cell line LO2, MTT, triplicate. How it is done: Human liver cell line LO2 was obtained from the Institute of Biochemistry and Cell Biology (Chinese Academy of Sciences). LO2 cells were maintained in RPMI 1640 containing 10% fetal bovine serum (FBS), 100 units/mL penicillin and 100 units/mL streptomycin. All the cells were grown in a humidified cell incubator with an atmosphere of 5% CO2 at 37°C and subcultured with 0.25% trypsin + 0.02% EDTA. MTT, dimethyl sulfoxide (DMSO), ribonuclease (RNase), propidium iodide (PI), Annexin V-FITC/PI kit were obtained from Sigma. RPMI 1640, DMEM, FBS were purchased from Gibco. Hoechst, trypsin, and the pan caspase inhibitor z-VAD-FMK were obtained from Beyotime Institute of Biotechnology. Compounds were dissolved in DMSO and diluted to the proper concentrations before use, with the concentration of DMSO kept below 0.1% in all assays. Cell viability was measured by the MTT method as previously described, with some modifications ([Jiang et al., 2013]). Briefly, cells were seeded in 96-well microtiter plates at a density of 5 × 10^3 cells/well for 24 h. After drug treatment for the indicated times, cells were incubated with MTT (0.5 mg/mL) for 4 h. The formazan precipitate was dissolved in 150 μL DMSO, and the absorbance was detected at 490 nm with a Sunrise microplate reader (Tecan Group Ltd.). DMSO (0.1%) was used as negative control for all assays. Each test was performed in triplicate.

Assay [4] relates to P. aeruginosa [CMCC(B)10104]. As to the kind of experiment: Broth dilution antibacterial assay (MIC, MBC by subculture) against P. aeruginosa. Conditions: Pseudomonas aeruginosa; for MBC: lowest concentration killing 99.9% of original inoculum; for MIC: 18 h, broth dilution, 37°C, triplicate. The protocol: as §1, §2
Background: Dilution methods test growth across graded concentrations, often in twofold steps.

The mark [5] stands for this setting: lowest concentration killing 99.9% of original inoculum.
Where [6] appears, read: broth dilution, 37°C, 18 h, triplicate.
Where [7] appears, read: lowest concentration killing 99.9% of original inoculum, read-out: MBC.

Values after ≈ are worked out from the molar mass of the structure shown. Where two headings read alike, the source gives them in different places.

`COc1cc(=O)oc(C(O)C=CC=CC=C(C)C2OC3(C)C(C)OC2(C)C3O)c1C` (stereo not shown) [Compound 8, Isopenicillstressol]: the MBC (as a rule, the lowest tested concentration that kills the bacteria rather than only halting them) in assay [1] (setting [5]) was 1 µg/mL (≈ 2.39 µM); in assay [2] (setting [5]), 128 µg/mL (≈ 306 µM); in assay [4] it was 8 µg/mL (≈ 19.1 µM). Further, in assay [3], the IC50 (usually the concentration that gives 50% inhibition) is “above 100 μg/mL”.

For the compound `COc1cc(=O)oc(/C=C/C=C/C=C/[C@@]2(C)O[C@@]3(C)[C@H](O)[C@](C)(O[C@H]3C)[C@@H]2O)c1C` [Compound 4, epiisocitreoviridinol], the MBC in assay [1] (Staphylococcus aureus) is 128 µg/mL (≈ 306 µM); in assay [2] (read-out: MBC), over 128 µg/mL; in assay [4] (read-out: MBC), 128 µg/mL (≈ 306 µM). The MIC – broadly, the least concentration at which growth counts as inhibited – is 64 µg/mL (≈ 153 µM) in assay [1] (Staphylococcus aureus), over 128 µg/mL in assay [2] and 64 µg/mL (≈ 153 µM) in assay [4] (read-out: MIC).

Regarding `COc1cc(=O)oc(C(O)C=CC=CC=C(C)C2OC3(C)C(C)OC2(C)C3O)c1C` (stereo not shown) [Compound 7, Penicillstressol], the MBC in assay [1] (Staphylococcus aureus) came out at 1 µg/mL (≈ 2.39 µM); in assay [2] (setting [7]), 128 µg/mL (≈ 306 µM); in assay [4] (read-out: MBC) it was 8 µg/mL (≈ 19.1 µM). The MIC is 0.5 µg/mL (≈ 1.19 µM) in assay [1] (Staphylococcus aureus), 64 µg/mL (≈ 153 µM) in assay [2] (setting [6]) and 4 µg/mL (≈ 9.56 µM) in assay [4] (read-out: MIC). The IC50 in assay [3] (Homo sapiens, read-out: IC50) is over 100 µg/mL.

For the compound `COc1cc(=O)oc(C=CC=CC=CC2(C)OC3(C)C(C)OC(C)(C2O)C3O)c1C` (stereo not shown) [Compound 5, 10Z-isocitreoviridinol], the minimal bactericidal concentration (MBC) in assay [1] (Staphylococcus aureus) was 2 µg/mL (≈ 4.78 µM); in assay [2] (setting [7]), 128 µg/mL (≈ 306 µM); in assay [4] (read-out: MBC), 16 µg/mL (≈ 38.2 µM). Also, the MIC stood at 1 µg/mL (≈ 2.39 µM) in assay [1] (Staphylococcus aureus), 64 µg/mL (≈ 153 µM) in assay [2] (setting [6]) and 8 µg/mL (≈ 19.1 µM) in assay [4] (read-out: MIC).

With `COc1cc(=O)oc(C=CC=CC=CC(C)=CC2(C)OC(C)C(C)(O)C2O)c1C` (stereo not shown) [Compound 1, Neocitreoviridin], the MBC in assay [1] (Staphylococcus aureus) was determined as 128 µg/mL (≈ 318 µM); in assay [2] (setting [7]), 128 µg/mL (≈ 318 µM); in assay [4] (read-out: MBC), 8 µg/mL (≈ 19.9 µM). The MIC was determined as 64 µg/mL (≈ 159 µM) in assay [1] (Staphylococcus aureus), 64 µg/mL (≈ 159 µM) in assay [2] (setting [6]) and 4 µg/mL (≈ 9.94 µM) in assay [4] (read-out: MIC).

Regarding `COc1cc(=O)oc(C=CC=CC=CC(C)=CC2(C)OC(C)C(C)(O)C2O)c1C` (stereo not shown) [Compound 2, citreoviridin], the MBC in assay [1] (setting [5]) was determined as 128 µg/mL (≈ 318 µM); in assay [2] (setting [5]) it was 128 µg/mL (≈ 318 µM); in assay [4], 16 µg/mL (≈ 39.8 µM). In assay [4], the MIC was 8 µg/mL (≈ 19.9 µM).

In the case of `CN(C)[C@@H]1C(O)=C(C(N)=O)C(=O)[C@@]2(O)C(O)=C3C(=O)c4c(O)cccc4[C@@](C)(O)[C@H]3C[C@@H]12` [Tetracycline, reference compound], the minimal bactericidal concentration (MBC) was determined as 4 µg/mL (≈ 9 µM) in assay [1] (Staphylococcus aureus), 128 µg/mL (≈ 288 µM) in assay [2] (setting [7]) and 16 µg/mL (≈ 36 µM) in assay [4] (read-out: MBC). Moreover, the MIC in assay [1] (Staphylococcus aureus) was 2 µg/mL (≈ 4.5 µM); in assay [1] (broth dilution, 37°C, triplicate) it was “around 2 µg/mL”; in assay [2] (setting [6]), 64 µg/mL (≈ 144 µM); in assay [4] (read-out: MIC), 8 µg/mL (≈ 18 µM).

Regarding `COc1cc(=O)oc(/C=C/C=C/C=C/[C@@]2(C)O[C@]3(C)[C@@H](O)[C@@](C)(O[C@@H]3C)[C@@H]2O)c1C` [Compound 3, epicitreoviridinol], the MBC in assay [1] (Staphylococcus aureus) is 2 µg/mL (≈ 4.78 µM); in assay [2] (read-out: MBC) it was over 128 µg/mL; in assay [4] (read-out: MBC), 128 µg/mL (≈ 306 µM). Moreover, the MIC was 1 µg/mL (≈ 2.39 µM) in assay [1] (Staphylococcus aureus), over 128 µg/mL in assay [2] and 64 µg/mL (≈ 153 µM) in assay [4] (read-out: MIC).

Consider `COc1cc(=O)oc(/C=C/C=C/C=C/[C@@]2(C)O[C@]3(C)[C@@H](O)[C@@](C)(O[C@@H]3C)[C@H]2O)c1C` [Compound 6, citreoviridinol], for which the MBC in assay [1] (Staphylococcus aureus) is 8 µg/mL (≈ 19.1 µM); in assay [2] (read-out: MBC), over 128 µg/mL; in assay [4] (read-out: MBC), 128 µg/mL (≈ 306 µM). Also, the MIC in assay [1] (Staphylococcus aureus) is 4 µg/mL (≈ 9.56 µM); in assay [2] it was over 128 µg/mL; in assay [4] (read-out: MIC) it was 64 µg/mL (≈ 153 µM).
